Values after ≈ are worked out from the molar mass of the structure shown.
What was measured:
[1] = tested on: human oral epidermoid carcinoma KB cells; assay: Growth inhibitory effect against KB cells (MTT, 72 h); format: cell-based; conditions: absorbance 590 nm
Protocol: Growth Inhibitory Effect (IC50) of Compounds Obtained in Examples Against KB Cells Human oral epidermoid carcinoma KB cells (1×10^4 cells/ml) were transferred to a 96-well microwell plate at 0.1 ml per well and subjected to stationary culture at 37° C. with 5% CO2 for 24 hours. To the resulting culture was added a 10% MEM (Nissui Junyaku) solution of a compound of an Example, followed by stationary culture at 37° C. with 5% CO2 for 72 hours. The culture broth was then removed using a micropipette. 0.1 ml of a 10% minimal essential medium solution containing 3-(4,5-dimethylthiazol-2-yl)-2,5-diphenyl-2H-tetrazolium bromide (Dojin Kagaku) (1.0 mg/ml) was added, followed by cultivation at 37° C. for 4 hours. 0.1 ml of a 10% sodium dodecylsulfate (Wako Pure Chemical) was then added, followed by cultivation at 37° C. for 24 hours.

[2] = tested on: Sarcoma 180 cells; assay: Antitumor activity on Sarcoma 180 cells in ICR mice, oral; format: in vivo; conditions: 0.3 mg/mouse, 9 times, tumor weight after 21 days
Protocol: (§1) Antitumor Activity of Compounds Obtained in Examples on Sarcoma 180 Cells
(1) Sarcoma 180 cells were subcutaneously transplanted to the side of the back of ICR mice (5 mice per group) at 1×10^6 cells per animal. 8, 9, 10, 13, 14, 15, 16, 17 and 20 days after the transplantation (a total of 9 times), the compound of Example 1, dissolved in physiological saline, was orally administered (0.3 mg/mouse). After 21 days, the tumor tissue was excised and weighed.

[3] = tested on: CDF-1 mice; assay: Acute toxicity test in mice, single intraperitoneal administration; format: in vivo; conditions: single i.p., female CDF-1 mice, 7 days observation
Protocol: Acute Toxicity Test with Compounds of Example in Mice
0.2 ml of a solution of a compound of the Example in physiological saline was intraperitoneally administered once to female CDF-1 mice (5 weeks in age, 5 animals per group). Observation was conducted for 7 days following the administration.

[4] = tested on: Sarcoma 180 cells; assay: Antitumor activity on Sarcoma 180 cells in ICR mice, intraperitoneal; format: in vivo; conditions: 0.1 mg/mouse, 8 times, tumor weight after 21 days
Protocol: as §1
(2) Sarcoma 180 cells were subcutaneously transplanted to the side of the back of ICR mice (5 mice per group) at 1×10^6 cells per animal. 8, 9, 12, 13, 15, 16, 19 and 20 days after the transplantation (a total of 8 times), a compound of an Example, dissolved in physiological saline, was intraperitoneally administered (0.1 mg/mouse). After 21 days, the tumor tissue was excised and weighed.

[5] = cited from earlier work

| SMILES | IC50 [1] | further results |
| --- | --- | --- |
| CCCCCCCCCCCCCCCCCCOCC(COCCOCC[n+]1ccn(CCCCCC(=O)[O-])c1)Oc1ncccn1 (stereo not shown) [Example 1, 6-[3-[2-[2-[3-octadecyloxy-2-(pyrimidin-2-yloxy)-propoxy]ethoxy]ethyl]imidazolio-1yl]hexanoate] | 0.16 µg/mL (≈ 0.237 µM) | Growth inhibition ratio (1-T/C %) [2]: 65%; Number of mice that died/number of subject mice ([3]; 50 mg/kg): 0/5 |
| CCCCCCCCCCCCCCCCCCOCC(COCCOCC[n+]1ccn(CCCCCC(=O)[O-])c1)OCC(C)=O (stereo not shown) [Example 3] | 0.32 µg/mL (≈ 0.49 µM) | Number of mice that died/number of subject mice ([3]; 50 mg/kg): 0/5 |
| CCCCCCCCCCCCCCCCCCOCC(COCCOCC[N+](C)(C)CCCCCC(=O)[O-])OCC(C)=O (stereo not shown) [Example 5, 6-[N,N-dimethyl-N-[2-[2-[3-octadecyloxy-2-(2-oxopropoxy)propoxy]ethoxy]ethyl]ammonio]hexanoate] | 2.5 µg/mL (≈ 3.97 µM) | Number of mice that died/number of subject mice ([3]; 50 mg/kg): 0/5 |
| CCCCCCCCCCCCCCCCCCOCC(COCCOCC[n+]1ccn(CC(=O)[O-])c1)OCCCCCC (stereo not shown) [Example 6, 2-[3-[2-[2-[2-hexyloxy-3-octadecyloxypropoxy]-ethoxy]ethyl]imidazolio-1-yl]acetate] | 2.5 µg/mL (≈ 4 µM) | Number of mice that died/number of subject mice ([3]; 50 mg/kg): 0/5 |
| CCCCCCCCCCCCCCCCCCOCC(COCCOCC[n+]1ccn(CCCCCCCCC(=O)[O-])c1)Oc1ncccn1 (stereo not shown) [Example 7] | 0.16 µg/mL (≈ 0.223 µM) |  |
| CCCCCCCCCCCCCCCCCCOCC(COCCOCC[n+]1ccn(CCCC(=O)[O-])c1)Oc1ncccn1 (stereo not shown) [Example 8, 4-[3-[2-[2-[3-octadecyloxy-2-(pyrimidin-2-yloxy)-propoxy]ethoxy]ethyl]imidazolio-1-yl]butyrate] | 1.25 µg/mL (≈ 1.93 µM) | Growth inhibition ratio (1-T/C %) [4]: 66%; Number of mice that died/number of subject mice ([3]; 100 mg/kg): 0/5 |
| CCCCCCCCCCCCCCCCCCOCC(COCCOCC[N+](C)(C)CCCCCC(=O)[O-])Oc1ncccn1 (stereo not shown) [Example 9, 6-[N,N-dimethyl-N-[2-[2-[3-octadecyloxy-2-(pyrimidin-2-yloxy)propoxy]ethoxy]ethyl]ammonio]-hexanoate] | 1.25 µg/mL (≈ 1.92 µM) | Number of mice that died/number of subject mice ([3]; 100 mg/kg): 0/5 |
| CCCCCCCCCCCCCCCCCCOCC(COCCOCC[n+]1ccn(CCCCc2ccc(C(=O)[O-])cc2)c1)Oc1ncccn1 (stereo not shown) [Example 10, 4-[4-[3-[2-[2-[3-octadecyloxy-2-(pyrimidin-2-yloxy)-propoxy]ethoxy]ethyl]imidazolio-1-yl]butyl]benzoate] | 0.32 µg/mL (≈ 0.434 µM) | Number of mice that died/number of subject mice ([3]; 50 mg/kg): 0/5 |
| CCCCCCCCCCCCCCCCCCOCC(COCCOCC[n+]1ccn(CCCCC2CCC(C(=O)[O-])CC2)c1)Oc1ncccn1 (stereo not shown) [Example 11, 4-[4-[3-[2-[2-[3-octadecyloxy-2-(pyrimidin-2-yloxy)propoxy]ethoxy]ethyl]imidazolio-1-yl]butyl]-cyclohexylcarboxylate] | 0.32 µg/mL (≈ 0.431 µM) |  |
| CCCCCCCCCCCCCCCCCCOCC(COCCOCC[n+]1cccc(CCC(=O)[O-])c1)Oc1ncccn1 (stereo not shown) [Example 12, 3-[1-[2-[2-[3-octadecyloxy-2-(pyrimidin-2-yloxy)-propoxy]ethoxy]ethyl]pyridinio-3-yl]propionate] | 0.63 µg/mL (≈ 0.978 µM) | Growth inhibition ratio (1-T/C %) [4]: 81%; Number of mice that died/number of subject mice ([3]; 100 mg/kg): 0/5 |
| CCCCCCCCCCCCCCCCCCOCC(COCCOCC[n+]1ccn(CCCCCC(=O)OC)c1)Oc1ncccn1.[Cl-] (stereo not shown) [Example 14, 1-(5-methoxycarbonylpentyl)-3-[2-[2-[3-octadecyloxy-2-(pyrimidin-2-yloxy)propoxy]ethoxy]-ethyl]imidazolium chloride] | 0.32 µg/mL |  |
| CCCCCCCCCCCCCCCCCCOCC(COCCOCC[n+]1ccn(CCC(C)(C)C(=O)OCC)c1)Oc1ncccn1 (stereo not shown) [Example 15, 1-(3-ethoxycarbonyl-3-methyl)butyl-3-[2-[2-[3-octadecyloxy-2-(pyrimidin-2-yloxy)propoxy]-ethoxy]ethylimidazolium chloride] | 0.63 µg/mL |  |
| CCCCCCCCCCCCCCCCCCOCC(COCCOCC[n+]1ccn(CCC(C)(C)C(=O)[O-])c1)Oc1ncccn1 (stereo not shown) [Example 16, 2,2-dimethyl-4-[3-[2-[2-[3-octadecyloxy-2-(pyrimidin-2-yloxy)propoxy]ethoxy]ethyl]imidazolio-1-yl]butyrate] | 0.63 µg/mL (≈ 0.933 µM) |  |
| CCCCCCCCCCCCCCCCCCOCC(COCCOCC[N+]1(CCCCCC(=O)[O-])CCCC1)Oc1ncccn1 (stereo not shown) [Example 17, 6-[1-[2-[2-[3-octadecyloxy-2-(pyrimidin-2-yloxy)-propoxy]ethoxy]ethyl]pyrrolidinio-1-yl]hexanoate] | 0.32 µg/mL (≈ 0.472 µM) |  |
| CCCCCCCCCCCCCCCCCCOCC(COCCOCC[n+]1ccn(CCCOC(=O)CCC(=O)[O-])c1)Oc1ncccn1 (stereo not shown) [Example 18, 3-[3-[2-[2-[3-octadecyloxy-2-(pyrimidin-2-yloxy)-propoxy]ethoxy]ethyl]imidazolio-1-yl]propyl succinate] | 0.32 µg/mL |  |
| CCCCCCCCCCCCCCCCCCOCC(COCCOCC[n+]1cccc(CCCOC(=O)CCC(=O)[O-])c1)Oc1ncccn1 (stereo not shown) [Example 19, 3-[1-[2-[2-[3-octadecyloxy-2-(pyrimidin-2-yloxy)-propoxy]ethoxy]ethyl]pyridinio-3-yl]propyl succinate] | 0.63 µg/mL |  |
| CCCCCCCCCCCCCCCCCCOCC(COCCOCCOCC[n+]1ccn(CCCCCC(=O)[O-])c1)Oc1ncccn1 (stereo not shown) [Example 20, 6-[3-[2-[2-[2-[3-octadecyloxy-2-(pyrimidin-2-yloxy)propoxy]ethoxy]ethoxy]ethyl]imidazolio-1-yl]-hexanoate] | 0.32 µg/mL (≈ 0.445 µM) | Number of mice that died/number of subject mice ([3]; 100 mg/kg): 0/5 |
| CCCCCCCCCCCCCCCCCCOCC(COCCOCCOCC[n+]1ccn(CCCC(=O)[O-])c1)Oc1ncccn1 (stereo not shown) [Example 21, 4-[3-[2-[2-[2-[3-octadecyloxy-2-(pyrimidin-2-yloxy)propoxy]ethoxy]ethoxy]ethyl]imidazolio-1-yl]-butyrate] | 0.63 µg/mL (≈ 0.912 µM) | Number of mice that died/number of subject mice ([3]; 100 mg/kg): 0/5 |
| CCCCCCCCCCCCCCCCCCOCC(COCCCC[n+]1cccc(CCC(=O)[O-])c1)Oc1ncccn1 (stereo not shown) [Example 22, 3-[1-[4-[3-octadecyloxy-2-(pyrimidin-2-yloxy)-propoxy]butyl]pyridinio-3-yl]propionate] | 0.63 µg/mL (≈ 1 µM) |  |
| CCCCCCCCCCCCCCCCCCOCC(COCCCC[n+]1cccc(CCCCC(=O)[O-])c1)Oc1ncccn1 (stereo not shown) [Example 23, 5-[1-[4-[3-octadecyloxy-2-(pyrimidin-2-yloxy)-propoxy]butyl]pyridinio-3-yl]pentanoate] | 0.32 µg/mL (≈ 0.488 µM) |  |
| O=C([O-])CCCn1cc[n+](CCOCCOCC(COCCCCCCCCCCCCC2CCCCC2)Oc2ncccn2)c1 (stereo not shown) [Example 24, 4-[3-[2-[2-[3-(12-cyclohexyldodecyloxy)-2-(pyrimidin-2-yloxy)propoxy]ethoxy]ethyl]imidazolio-1-yl]butyrate] | 0.32 µg/mL (≈ 0.496 µM) |  |
| O=C([O-])CCCCCn1cc[n+](CCOCCOCC(COCCCCCCCCCCCCC2CCCCC2)Oc2ncccn2)c1 (stereo not shown) [Example 25, 6-[3-[2-[2-[3-(12-cyclohexyldodecyloxy)-2-(pyrimidin-2-yloxy)propoxy]ethoxy]ethyl]imidazolio-1-yl]hexanoate] | 0.16 µg/mL (≈ 0.238 µM) |  |
| CCCCCCCCCCCCCCCCCCOCC(COP(=O)([O-])OCC[N+](C)(C)C)OC (stereo not shown) [phospholipid represented by formula (II)] |  | antitumor activities ([5]; Anticancer Research, 1, 345 (1981)): possess antitumor activities; adverse effects ([5]; clinical trial limitation, similarity to PAF): various adverse effects such as bronchostenosis, platelet aggregation and hypotension |
